Measurements taken from US20240228448A1 (Washington University, priority 2021, published 2024).

Test: Radiometabolite analysis of nonhuman primate plasma samples
Format: in vivo, macaque
Conditions: for percentage of the parental radiotracer of total radioactivity: macaque plasma
Experimental: HPLC radiometabolite analysis of the macaque plasma samples collected at different time points post-injection of [^18F]FS1P1 was performed as previously reported (H. Liu, et al., Mol. Imaging Biol., 2020, 22, 1362-1369.). A male macaque (˜10 kg) was intravenously injected with ˜0.35 GBq of [^18F]FS1P1. […] Plasma (400 μL) was then collected and mixed with 1.2 mL ice-cold acetonitrile to deproteinize. […] The eluted fractions were collected at one-minute intervals for a total of 16 minutes, the radioactivity of each fraction collection was counted in an automated gamma counter (Beckman, Brea, CA), and results were corrected by background radioactive counts and physical decay. The chromatography was regenerated represented by the percentage that was calculated by radioactivity count of every minute collection divided by the total injection amount on the HPLC system and multiplied by 100.

Cc1ccccc1-c1ccc(-c2nc(-c3ccc(CN(C)CCC(=O)O)c([18F])c3)no2)cc1C(F)(F)F [[^18F]FS1P1]
radiometabolites in macaque plasma (5, 15, 30, and 60 min post injection, in words): No major metabolite was detected
percentage of the parental radiotracer of total radioactivity (5 min post-injection): 96%
percentage of the parental radiotracer of total radioactivity (15 min post-injection): 96%
percentage of the parental radiotracer of total radioactivity (30 min post-injection): 94%
percentage of the parental radiotracer of total radioactivity (60 min post-injection): 88%
